The values that follow are results of earlier work, collected in patent US20260083754A1, “CORTICOSTEROID CONTAINING ORALLY DISINTEGRATING TABLET COMPOSITIONS FOR EOSINOPHILIC ESOPHAGITIS” (Ellodi Pharmaceuticals, L.P., priority 2013, published 2026).

Series [1] concerns EoE patients.
The test system of series [2] is adolescent and adult patients with active EoE. To be noted: 15-day course, 1 mg twice daily.

`CCC(=O)O[C@]1(C(=O)SCF)[C@H](C)C[C@H]2[C@@H]3C[C@H](F)C4=CC(=O)C=C[C@]4(C)[C@@]3(F)[C@@H](O)C[C@@]21C` [FP, fluticasone propionate]: the “patients who achieved histologic remission” value in series [1] (FP-treated patients, placebo 9%, P=0.047) was 50%. The esophageal eosinophil levels result in series [1] (more pronounced effect in non-allergic individuals) is on record as “decreased”.
Turning to `CCCC1O[C@@H]2C[C@H]3[C@@H]4CCC5=CC(=O)C=C[C@]5(C)[C@H]4[C@@H](O)C[C@]3(C)[C@]2(C(=O)CO)O1` (stereo partly drawn) [budesonide], in series [2], the tolerability entry was “well tolerated”.
